Results taken from patent publication EP0998912B1, “Use of peracids for hand's disinfection or decontamination” (Bode Chemie GmbH & Co., priority 1998, dated 2000).

Assays:
[1] = tested on: transiente Flora (E. coli); assay: Hygienic hand disinfection test, DGHM guidelines (01.01.1981, Versuch II-1); assay type: in vivo; conditions: 1 bis 10 gewichts-%-ige purely aqueous solutions, 30 bis 60 Sekunden; compared with requirements for 60 Volumen-% Ethanol or Isopropanol
Procedure: Mit der Zubereitung aus Beispiel 2 wurde der Test zur hygienischen Händedesinfektion gemäß den Richtlinien der DGHM (Stand: 01.01.1981, Versuch II-1) durchgeführt. Bei diesem Versuch muß die transiente Flora (E. coli) in 30 Sekunden gleich oder stärker reduziert werden als mit einem Standardalkohol (Isopropanol 60 Vol.-%) in 1 Minute.

Bakterien = assay: Comparative trials on germ reduction by aqueous MMPP solutions; conditions: 0,1 bis 10 gewichts-%-ige aqueous solutions, about 30 Sekunden Einwirkzeit
[2] = Skin tolerance observed during the hand disinfection and decontamination tests; assay type: in vivo
Description: (§1) Mit dieser Lösung wurde der Test zur chirurgischen Händedesinfektion entsprechend den Richtlinien der DGHM (Stand: 01.01.1981, Versuch II-2) durchgeführt. Bei diesem Versuch werden die Hände durch Einreiben 3 Minuten feucht gehalten und gegen ein Standardalkohol (n-Propanol 60 Vol.-%) nach 5 Minuten getestet. Der Test gilt als bestanden, wenn die residente Hautflora durch das Testpräparat gleich oder stärker reduziert wird als durch den Standard.
Mit einer solchen Lösung, die 4 Gew.-% des Wirkstoffes MMPP enthält, wurde ein Test zur Händedekontamination nach DGHM (Stand: 08.07.1986, Versuch 11) durchgeführt. Bei diesem Verfahren wird die Fähigkeit getestet, die transiente Hautflora zu reduzieren. Der Test gilt als bestanden, wenn das Präparat innerhalb von 30 Sekunden eine E. coli-Kontamination um 3,5 logarithmische Stufen entsprechend 99,9684 % reduziert.
Mit diesen Pasten wurden entsprechend Beispiel 2 die Versuche zur Händedekontamination durchgeführt. Die Hände werden 30 Sekunden mit 1,5 ml der Pasten eingerieben und dann mit Wasser entsprechend der Vorschrift aufgeschäumt.
Mit der Zubereitung aus Beispiel 2 wurde der Test zur hygienischen Händedesinfektion gemäß den Richtlinien der DGHM (Stand: 01.01.1981, Versuch II-1) durchgeführt. […]

residente Hautflora = assay: Surgical hand disinfection test, DGHM guidelines (01.01.1981, Versuch II-2); assay type: in vivo; conditions: 5 gew.-%ige solution in demineralised water, hands kept moist 3 Minuten; standard n-Propanol 60 Vol.-% 5 Minuten
Description: as §1

## O=C(O)c1ccccc1C(=O)OO [MMPP, Magnesium-Monoperoxidophthalat]
[1]
  Keimreduktion bei der hygienischen Händedesinfektion: vergleichbare Keimreduktion
Bakterien
  Keimreduktion: > 4 log-Stufen
Bakterien; equivalent of the log steps
  Keimreduktion: > 99,99%
[2]; 0,1 bis 10 gewichts-%-ige aqueous solutions, Vergleichsversuche
  Hautverträglichkeit: hervorragend hautverträglich
[2]; Beispiel 1, 5 gew.-%ige MMPP-Lösung, surgical hand disinfection
  Hautunverträglichkeiten: keine Hautunverträglichkeiten
Residente Hautflora
  Reduktion der residenten Hautflora gleich oder stärker als durch den Standard: erfüllt diese Anforderungen
